Results taken from patent US11274092B2, “Potassium channel inhibitors” (ACESION PHARMA ApS, priority 2016, dated 2022).

Molecular target: T1, human SK3 channel (hKCa2.3) (Homo sapiens, UniProt Q9UGI6)
T1 construct: expressed in transfected cells
Test: Automated whole cell patch-clamp (QPatch 16 HT), inhibition of SK3 current
Type: cell-based
Conditions: HEK-293 cells stably expressing hKCa2.3; symmetrical K+ solutions, free calcium 400 nM; effects normalized to N-methyl bicuculline
Procedure: Automated whole cell patch-clamp recordings were performed using a QPatch 16 HT system and single-hole Qplates (Biolin Scientific, Sophion, Denmark) on HEK-293 cells stably expressing the human SK3 channel (hKCa2.3). Cells were cultured and prepared for experiments using normal cell culturing procedures. A total of 4-5 million cells were used per experiment. The Qpatch automatically generates giga sealing, whole-cell formation, compound application and recording of current. hKCa2.3 currents were recorded in symmetrical K^+ solutions, with an intracellular solution consisting of in mM: KCl 108; KOH/EGTA (ethylene glycol-bis(2-aminoethylether)-N,N,N′,N′-tetraacetic acid) 31.25/10; CaCl2) 8.1; MgCl2 1.2; HEPES (2-[4-(2-hydroxyethyl)piperazin-1-yl]ethanesulfonic acid) 10; KOH 15, pH adjusted to pH=7.2 with HCl. The free calcium concentration was calculated to 400 nM. The extracellular solution consisted of in mM: KCl 150; CaCl2) 0.1; MgCl2 3; HEPES 10; Glucose 10, pH=7.4 with KOH. The cells were held at 0 mV and hKCa2.3 currents were elicited by a linear voltage ramp from […] (200 ms in duration) applied every 5th second. The compound application protocol consisted of 12 recording periods lasting from 50-200 s: 1) Baseline recordings in extracellular solution; 2) Application of the positive control N-methyl bicuculline (100 μM), which is characterized by full efficacy, fast on- and off-rate; 3-4) Wash-out; 5-9) Increasing concentrations of test compound to establish an IC50 value; 10-11) Wash-out; 12) positive control with compound NS8593 (N-[(1R)-1,2,3,4-tetrahydro-1-naphthalenyl]-1H-benzimidazol-2-amine) (1 μM). Data were sampled at 10 kHz, 4th order Bessel filter, cut-off frequency 3 kHz. Currents were compensated for run-down. Potency was quantified as the concentration needed to inhibit half of the SK channel activity and reported as an IC50 value. All effects of compounds of the present invention as tested were normalized to the observed inhibitory effect of N-methyl bicuculline.

Structure (SMILES)	IC50 [µM]
O=C(C(Nc1nc2ccccc2[nH]1)c1cccc(C(F)(F)F)c1)N1CCOCC1 (stereo not drawn) [Example 32, 2-[(1H-1,3-benzodiazol-2-yl)amino]-1-(morpholin-4-yl)-2-[3-(trifluoromethyl)phenyl]ethan-1-one]	< 10
CN(CCO)C(=O)C(Nc1nc2ccccc2[nH]1)c1cccc(C(F)(F)F)c1 (stereo not drawn) [Example 30, 2-[(1H-1,3-benzodiazol-2-yl)amino]-N-(2-hydroxyethyl)-N-methyl-2-[3-(trifluoromethyl)phenyl]acetamide]	< 10
CN1CCN(C(=O)C(Nc2nc3ccccc3[nH]2)c2cccc(C(F)(F)F)c2)CC1 (stereo not drawn) [Example 27, 2-[(1H-1,3-benzodiazol-2-yl)amino]-1-(4-methylpiperazin-1-yl)-2-[3-(trifluoromethyl)phenyl]ethan-1-one]	< 10
CCS(=O)(=O)NCCNC(=O)CC(Nc1nc2ccccc2[nH]1)c1cccc(C(F)(F)F)c1 (stereo not drawn) [Example 3, 3-[(1H-1,3-benzodiazol-2-yl)amino]-N-(2-ethanesulfonamidoethyl)-3-[3-(trifluoromethyl)phenyl]propanamide]	10 to 100
O=C(CC(Nc1nc2ccccc2[nH]1)c1cccc(C(F)(F)F)c1)N[C@H]1CCOC1 (stereo partly drawn) [Example 9, 3-[(1H-1,3-benzodiazol-2-yl)amino]-N-[(3S)-oxolan-3-yl]-3-[3-(trifluoromethyl)phenyl]propanamide]	< 10
O=C(CC(Nc1nc2ccccc2[nH]1)c1cccc(C(F)(F)F)c1)N1CC(O)C1 (stereo not drawn) [Example 6, 3-[(1H-1,3-benzodiazol-2-yl)amino]-1-(3-hydroxyazetidin-1-yl)-3-[3-(trifluoromethyl)phenyl]propan-1-one]	< 10
O=C(CC(Nc1nc2ccccc2[nH]1)c1cccc(C(F)(F)F)c1)NCc1ncco1 (stereo not drawn) [Example 18, 3-[(1H-1,3-benzodiazol-2-yl)amino]-N-[(1,3-oxazol-2-yl)methyl]-3-[3-(trifluoromethyl)phenyl]propanamide]	< 10
O=C(C(Nc1nc2ccccc2[nH]1)c1cccc(C(F)(F)F)c1)N1CCCCC1 (stereo not drawn) [Example 31, 2-[(1H-1,3-benzodiazol-2-yl)amino]-1-(piperidin-1-yl)-2-[3-(trifluoromethyl)phenyl]ethan-1-one]	< 10
CCOC(=O)CNC(=O)CC(Nc1nc2ccccc2[nH]1)c1cccc(C(F)(F)F)c1 (stereo not drawn) [Example 23, Ethyl 2-{3-[(1H-1,3-benzodiazol-2-yl)amino]-3-[3-(trifluoromethyl)phenyl]propanamido}acetate]	< 10
N#CCNC(=O)CC(Nc1nc2ccccc2[nH]1)c1cccc(C(F)(F)F)c1 (stereo not drawn) [Example 21, 3-[(1H-1,3-benzodiazol-2-yl)amino]-N-(cyanomethyl)-3-[3-(trifluoromethyl)phenyl]propanamide]	< 10
O=C(NC1COC1)C(Nc1nc2ccccc2[nH]1)c1cccc(C(F)(F)F)c1 (stereo not drawn) [Example 35, 2-[(1H-1,3-benzodiazol-2-yl)amino]-N-(oxetan-3-yl)-2-[3-(trifluoromethyl)phenyl]acetamide]	10 to 100
CC(C)S(=O)(=O)N1CCN(C(=O)C(Nc2nc3ccccc3[nH]2)c2cccc(C(F)(F)F)c2)CC1 (stereo not drawn) [Example 33, 2-[(1H-1,3-benzodiazol-2-yl)amino]-1-[4-(propane-2-sulfonyl)piperazin-1-yl]-2-[3-(trifluoromethyl)phenyl]ethan-1-one]	10 to 100
O=C(C(Nc1nc2ccccc2[nH]1)c1cccc(C(F)(F)F)c1)N1CCC1 (stereo not drawn) [Example 34, 1-(azetidin-1-yl)-2-[(1H-1,3-benzodiazol-2-yl)amino]-2-[3-(trifluoromethyl)phenyl]ethan-1-one]	< 10
CSCCNC(=O)CC(Nc1nc2ccccc2[nH]1)c1cccc(C(F)(F)F)c1 (stereo not drawn) [Example 1, 3-[(1H-1,3-benzodiazol-2-yl)amino]-N-[2-(methylsulfanyl)ethyl]-3-[3-(trifluoromethyl)phenyl]propanamide]	< 10
O=C(C(Nc1nc2ccccc2[nH]1)c1cccc(C(F)(F)F)c1)N1CCCC1 (stereo not drawn) [Example 29, 2-[(1H-1,3-benzodiazol-2-yl)amino]-1-(pyrrolidin-1-yl)-2-[3-(trifluoromethyl)phenyl]ethan-1-one]	< 10
O=C(CC(Nc1nc2ccccc2[nH]1)c1cccc(C(F)(F)F)c1)N1CC[C@@H](O)C1 (stereo partly drawn) [Example 14, 3-[(1H-1,3-benzodiazol-2-yl)amino]-1-[(3R)-3-hydroxypyrrolidin-1-yl]-3-[3-(trifluoromethyl)phenyl]propan-1-one]	10 to 100

Further lines, results first:

IC50 [µM]	Structure (SMILES)
< 10	O=C(CC(Nc1nc2ccccc2[nH]1)c1cccc(C(F)(F)F)c1)NCc1ccon1 (stereo not drawn) [Example 71, 3-[(1H-1,3-benzodiazol-2-yl)amino]-N-(1,2-oxazol-3-ylmethyl)-3-[3-(trifluoromethyl)phenyl]propanamide]
< 10	Cc1cccc(C(C)NC(=O)CC(Nc2nc3ccccc3[nH]2)c2cccc(C(F)(F)F)c2)n1 (stereo not drawn) [Example 76, 3-[(1H-1,3-benzodiazol-2-yl)amino]-N-[1-(6-methylpyridin-2-yl)ethyl]-3-[3-(trifluoromethyl)phenyl]propanamide]
< 10	O=C(CC(Nc1nc2ccccc2[nH]1)c1cccc(C(F)(F)F)c1)NCc1nccs1 (stereo not drawn) [Example 75, 3-[(1H-1,3-benzodiazol-2-yl)amino]-N-(1,3-thiazol-2-ylmethyl)-3-[3-(trifluoromethyl)phenyl]propanamide]
10 to 100	COCCNC(=O)CC(Nc1nc2cc(F)c(F)cc2[nH]1)c1cccc(C(F)(F)F)c1 (stereo not drawn) [Example 95, 3-[(5,6-difluoro-1H-1,3-benzodiazol-2-yl)amino]-N-(2-methoxyethyl)-3-[3-(trifluoromethyl)phenyl]propanamide]
10 to 100	CCOC(=O)NCc1ccc2[nH]c(NC(CC(=O)N(CC)CCO)c3cccc(C(F)(F)F)c3)nc2c1 (stereo not drawn) [Example 66, Ethyl N-{[2-({2-[ethyl(2-hydroxyethyl)carbamoyl]-1-[3-(trifluoromethyl)phenyl]ethyl}amino)-1H-1,3-benzodiazol-5-yl]methyl}carbamate]
< 10	O=C(CC(Nc1nc2ccccc2[nH]1)c1cccc(C(F)(F)F)c1)NCCOC(F)(F)F (single isomer, unassigned) [Example 67a, 3-[(1H-1,3-benzodiazol-2-yl)amino]-N-[2-(trifluoromethoxy)ethyl]-3-[3-(trifluoromethyl)phenyl]propanamide]
< 10	Cc1cc(CNC(=O)CC(Nc2nc3ccccc3[nH]2)c2cccc(C(F)(F)F)c2)ccn1 (stereo not drawn) [Example 79, 3-[(1H-1,3-benzodiazol-2-yl)amino]-N-[(2-methylpyridin-4-yl)methyl]-3-[3-(trifluoromethyl)phenyl]propanamide]
< 10	CCN(CCO)C(=O)CC(Nc1nc2ccccc2[nH]1)c1ccc(Cl)c(C)c1 (single isomer, unassigned; (-)) [Example 40a, (−)3-[(1H-1,3-benzodiazol-2-yl)amino]-3-(4-chloro-3-methylphenyl)-N-ethyl-N-(2-hydroxyethyl)propanamide]
< 10	CCOC(=O)CN(CC)C(=O)CC(Nc1nc2ccccc2[nH]1)c1cccc(C(F)(F)F)c1 (stereo not drawn) [Example 48, Ethyl 2-{3-[(1H-1,3-benzodiazol-2-yl)amino]-N-ethyl-3-[3-(trifluoromethyl)phenyl]propanamido}acetate]
< 10	O=C(CC(Nc1nc2ccccc2[nH]1)c1cccc(OC(F)(F)F)c1)NCCOC(F)(F)F (stereo not drawn) [Example 83, 3-[(1H-1,3-benzodiazol-2-yl)amino]-N-[2-(trifluoromethoxy)ethyl]-3-[3-(trifluoromethoxy)phenyl]propanamide]
< 10	COCCNC(=O)CC(Nc1nc2ccccc2[nH]1)c1cccc(OC(F)(F)F)c1 (stereo not drawn) [Example 84, 3-[(1H-1,3-benzodiazol-2-yl)amino]-N-(2-methoxyethyl)-3-[3-(trifluoromethoxy)phenyl]propanamide]
10 to 100	O=C(C(Nc1nc2ccccc2[nH]1)c1cccc(C(F)(F)F)c1)N1CC2(COC2)C1 (stereo not drawn) [Example 36, 2-[(1H-1,3-benzodiazol-2-yl)amino]-1-{2-oxa-6-azaspiro[3.3]heptan-6-yl}-2-[3-(trifluoromethyl)phenyl]ethan-1-one]
< 10	CCNC(=O)OCCNC(=O)CC(Nc1nc2ccccc2[nH]1)c1cccc(C(F)(F)F)c1 (stereo not drawn) [Example 63, 2-{3-[(1H-1,3-benzodiazol-2-yl)amino]-3-[3-(trifluoromethyl)phenyl]propanamido}ethyl N-ethylcarbamate]
< 10	COCCNC(=O)CC(Nc1nc2ccccc2[nH]1)c1cccc(C(F)(F)F)c1 (single isomer, unassigned; (-)) [Example 42a, (−)3-[(1H-1,3-benzodiazol-2-yl)amino]-N-(2-methoxyethyl)-3-[3-(trifluoromethyl)phenyl]propanamide]
